Among the test systems are CCRF-CEM leukemia; RXF 393 renal; SK-MEL-5 melanoma; SW-620 colon; HCT-15 colon; LXFL 529 NSCLC; IGROV1 ovarian; SK-MEL-2 melanoma; HCT-116 colon; MALME-3M melanoma; SN12C renal; DMS 273 small cell lung; SK-OV-3 ovarian; CAKI-1 renal; M19-MEL melanoma; COLO 205 colon; K-562 leukemia; KM20L2 colon; OVCAR-3 ovarian; NCI-H23 lung.
What all share (assay): growth of human tumour cells (NCI), 48 h

The structures appear in SMILES notation.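 All cell lines were grown in 96-well plates and treated with compound for 48 hours. Definition used: TGI = concentration required for complete inhibition of growth.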 A value given as a limit tells only on which side of the number the result lay.

On to `Cn1c(=O)[nH]c2c(c1=O)C(=O)CN2`, for which the TGI in the assay on CCRF-CEM leukemia, with RXF 393 renal, in the assay with SK-MEL-5 melanoma, with SW-620 colon, in the assay on HCT-15 colon and in the assay on LXFL 529 NSCLC was over 100 µM each time. Also, the TGI with IGROV1 ovarian, in the assay with SK-MEL-2 melanoma, in the assay with HCT-116 colon, in the assay with MALME-3M melanoma, in the assay on SN12C renal and in the assay with DMS 273 small cell lung was over 100 µM in each case. Besides, the TGI with SK-OV-3 ovarian, in the assay with CAKI-1 renal, with M19-MEL melanoma, in the assay on COLO 205 colon, with K-562 leukemia and with KM20L2 colon was over 100 µM each time.
Take `S=C1Cc2c(-c3ccccc3)cc(-c3ccc(Cl)cc3)nc2-c2ccccc2N1`: the TGI in the assay on CCRF-CEM leukemia was over 100 µM; in the assay on RXF 393 renal it was 11.2 µM; in the assay with SK-MEL-5 melanoma, over 100 µM; with SW-620 colon, 11.6 µM; in the assay on HCT-15 colon, over 54.7 µM; in the assay on IGROV1 ovarian it was 4.36 µM. Also, the TGI in the assay with SK-MEL-2 melanoma came to 20.9 µM; in the assay on HCT-116 colon, 13.7 µM; in the assay on MALME-3M melanoma, 13 µM; in the assay on SN12C renal, 5.26 µM; in the assay with SK-OV-3 ovarian, 7.26 µM; in the assay on CAKI-1 renal, 3.33 µM. Further, the values for the TGI with COLO 205 colon, in the assay on OVCAR-3 ovarian and in the assay on NCI-H23 lung were over 42 µM, 9.9 µM and 19.8 µM, respectively.
In the case of `COc1ccc(N[C@@H]2c3cc4c(cc3C(c3cc(OC)c(O)c(OC)c3)[C@H]3C(=O)OCC32)OCO4)cc1OC` (some centres undefined), the TGI in the assay on CCRF-CEM leukemia is over 39.3 µM; with RXF 393 renal it was over 26.9 µM; with SK-MEL-5 melanoma it was over 31.7 µM; with SW-620 colon, over 100 µM; in the assay on HCT-15 colon, over 100 µM; in the assay on IGROV1 ovarian it was over 75.7 µM. Further, the TGI with SK-MEL-2 melanoma is over 30.4 µM; in the assay on HCT-116 colon, over 42.7 µM; in the assay on MALME-3M melanoma, over 40.7 µM; in the assay on SN12C renal, over 72.9 µM; in the assay with DMS 273 small cell lung, over 100 µM; in the assay with SK-OV-3 ovarian, over 52.1 µM. Moreover, the TGI with M19-MEL melanoma was over 100 µM; with COLO 205 colon it was over 36.3 µM; with K-562 leukemia, over 100 µM; with OVCAR-3 ovarian it was over 28.4 µM; in the assay on NCI-H23 lung it was 1.92 µM; in the assay on KM20L2 colon it was over 100 µM.
Consider `CN(C(=O)c1ccccc1)c1ccc2c(c1)C(=O)c1ccccc1C2=O`, for which the TGI in the assay with CCRF-CEM leukemia, in the assay on RXF 393 renal, in the assay with SW-620 colon, in the assay on HCT-15 colon, in the assay on LXFL 529 NSCLC and in the assay on IGROV1 ovarian was over 100 µM throughout. The TGI in the assay with SK-MEL-2 melanoma, in the assay on HCT-116 colon, in the assay with MALME-3M melanoma, with SN12C renal, with DMS 273 small cell lung and in the assay on SK-OV-3 ovarian was over 100 µM in each case. In addition, the TGI in the assay on CAKI-1 renal, in the assay with M19-MEL melanoma, with COLO 205 colon, in the assay on K-562 leukemia, with OVCAR-3 ovarian and with NCI-H23 lung was over 100 µM throughout. The compound further registered a TGI with KM20L2 colon of over 100 µM.
In the case of `O=S(=O)(CF)OCCCCOS(=O)(=O)CF`, the TGI with CCRF-CEM leukemia, in the assay on SK-MEL-5 melanoma, with SW-620 colon, with HCT-15 colon, with LXFL 529 NSCLC and in the assay on IGROV1 ovarian was over 100 µM in each case. Also, the TGI in the assay on SK-MEL-2 melanoma, in the assay with HCT-116 colon, in the assay with MALME-3M melanoma, with SN12C renal, in the assay with DMS 273 small cell lung and in the assay on SK-OV-3 ovarian was over 100 µM in each case. For the same compound, the TGI in the assay on CAKI-1 renal, with M19-MEL melanoma, in the assay on COLO 205 colon, in the assay with K-562 leukemia, with OVCAR-3 ovarian and in the assay on NCI-H23 lung was over 100 µM throughout. The compound also gave a TGI with KM20L2 colon of over 100 µM.
As for `COC(=O)C(=O)C(C(C)=O)C(=O)C(=O)Nc1ccc(C)cc1C` (centres undefined), the TGI with CCRF-CEM leukemia, with RXF 393 renal, in the assay with SK-MEL-5 melanoma, with SW-620 colon, in the assay with HCT-15 colon and with LXFL 529 NSCLC was over 100 µM each time. Also, the TGI with IGROV1 ovarian, in the assay with SK-MEL-2 melanoma, in the assay on HCT-116 colon, in the assay on SN12C renal, in the assay on DMS 273 small cell lung and in the assay with SK-OV-3 ovarian was over 100 µM each time. The TGI in the assay on CAKI-1 renal, in the assay with M19-MEL melanoma, in the assay on COLO 205 colon, in the assay with K-562 leukemia, with NCI-H23 lung and in the assay on KM20L2 colon was over 100 µM throughout.
Regarding `O=C(NCCN(CCNC(=O)c1cccc(=O)n1O)CCNC(=O)c1cccc(=O)n1O)c1cccc(=O)n1O`, the TGI in the assay on CCRF-CEM leukemia, in the assay with RXF 393 renal, in the assay on SK-MEL-5 melanoma, in the assay on SW-620 colon, with HCT-15 colon and in the assay on IGROV1 ovarian was over 100 µM throughout. The TGI with SK-MEL-2 melanoma, in the assay on MALME-3M melanoma, with SN12C renal, in the assay on SK-OV-3 ovarian, in the assay with CAKI-1 renal and with COLO 205 colon was over 100 µM throughout. The TGI with K-562 leukemia, in the assay with OVCAR-3 ovarian and in the assay on NCI-H23 lung was over 100 µM in each case.
Consider `CCCCCC(/C=C/c1ncccc1OCCCCCC(=O)O)=N\NC1=NCCN1`, for which the TGI in the assay with CCRF-CEM leukemia, in the assay on RXF 393 renal, with SW-620 colon, in the assay with HCT-15 colon, in the assay with LXFL 529 NSCLC and in the assay with IGROV1 ovarian was over 100 µM throughout. Besides, the TGI in the assay with SK-MEL-2 melanoma, in the assay with HCT-116 colon, in the assay on MALME-3M melanoma, in the assay on SN12C renal, in the assay with DMS 273 small cell lung and with SK-OV-3 ovarian was over 100 µM throughout. Moreover, the TGI with CAKI-1 renal, in the assay with M19-MEL melanoma, with COLO 205 colon, with K-562 leukemia, with OVCAR-3 ovarian and in the assay with KM20L2 colon was over 100 µM in each case.
Consider `N#CCCN(CCC#N)c1ccc(/C=C(/NC(=O)Nc2ccccc2Cl)NC(=O)c2cc([N+](=O)[O-])ccc2Cl)cc1`, for which the TGI with CCRF-CEM leukemia, in the assay on RXF 393 renal, in the assay on SK-MEL-5 melanoma, in the assay on SW-620 colon, with HCT-15 colon and with LXFL 529 NSCLC was over 100 µM each time. Further, the TGI with IGROV1 ovarian, in the assay with SK-MEL-2 melanoma, in the assay on HCT-116 colon, with MALME-3M melanoma, in the assay on SN12C renal and in the assay with DMS 273 small cell lung was over 100 µM in each case. Also, the TGI in the assay on SK-OV-3 ovarian, in the assay with CAKI-1 renal, in the assay with M19-MEL melanoma, in the assay with COLO 205 colon, in the assay on K-562 leukemia and with OVCAR-3 ovarian was over 100 µM in each case. The same compound came in with a TGI in the assay with KM20L2 colon of over 100 µM.

The record behind these values is PubChem BioAssay (NCI).
